Experimental data as given in ChEMBL document CHEMBL2413072, “Synthesis and in vitro anticancer studies of novel C-2 arylidene congeners of lantadenes” (2013).

Legend:
Format in all cases: functional
SW-620 = assay: Growth inhibition of human SW620 cells by sulforhodamine B assay
NCI-H522 [1] = assay: Growth inhibition of human NCI-H522 cells by sulforhodamine B assay
HOP-92 [2] = assay: Growth inhibition of human HOP92 cells by sulforhodamine B assay
UACC-257 = assay: Growth inhibition of human UACC257 cells assessed as cell growth at 10^-8 M by sulforhodamine B assay; settings: read-out: Activity
SK-MEL-28 = assay: Growth inhibition of human SK-MEL-28 cells assessed as cell growth at 10^-8 M by sulforhodamine B assay; settings: read-out: Activity
SF-539 [3] = assay: Growth inhibition of human SF539 cells assessed as cell growth at 10^-8 M by sulforhodamine B assay; settings: read-out: Activity
KM12 = assay: Growth inhibition of human KM12 cells assessed as cell growth at 10^-8 M by sulforhodamine B assay; settings: read-out: Activity
HCT-116 = assay: Growth inhibition of human HCT116 cells assessed as cell growth at 10^-8 M by sulforhodamine B assay; settings: read-out: Activity
NCI-H522 [4] = assay: Growth inhibition of human NCI-H522 cells assessed as cell growth at 10^-8 M by sulforhodamine B assay; settings: read-out: Activity
UO-31 [5] = assay: Growth inhibition of human UO31 cells by sulforhodamine B assay
TK-10 = assay: Growth inhibition of human TK10 cells by sulforhodamine B assay
A498 = assay: Growth inhibition of human A498 cells by sulforhodamine B assay
OVCAR-5 = assay: Growth inhibition of human OVCAR5 cells by sulforhodamine B assay
LOX IMVI = assay: Growth inhibition of human LOXIMVI cells by sulforhodamine B assay
U-251 = assay: Growth inhibition of human U251 cells by sulforhodamine B assay
SF-295 = assay: Growth inhibition of human SF295 cells by sulforhodamine B assay
MDA-MB-231 = assay: Growth inhibition of human MDA-MB-231 cells assessed as cell growth at 10^-4 M by sulforhodamine B assay; settings: read-out: Activity
MCF7 = assay: Growth inhibition of human MCF7 cells assessed as cell growth at 10^-4 M by sulforhodamine B assay; settings: read-out: Activity
DU-145 = assay: Growth inhibition of human DU145 cells assessed as cell growth at 10^-4 M by sulforhodamine B assay; settings: read-out: Activity
ACHN = assay: Growth inhibition of human ACHN cells assessed as cell growth at 10^-4 M by sulforhodamine B assay; settings: read-out: Activity
OVCAR-3 [6] = assay: Growth inhibition of human OVCAR3 cells assessed as cell growth at 10^-4 M by sulforhodamine B assay; settings: read-out: Activity
UACC-62 = assay: Growth inhibition of human UACC62 cells assessed as cell growth at 10^-4 M by sulforhodamine B assay; settings: read-out: Activity
M14 = assay: Growth inhibition of human M14 cells assessed as cell growth at 10^-4 M by sulforhodamine B assay; settings: read-out: Activity
NCI-H460 [7] = assay: Growth inhibition of human NCI-H460 cells assessed as cell growth at 10^-4 M by sulforhodamine B assay; settings: read-out: Activity
MDA-MB-468 [8] = assay: Growth inhibition of human MDA-MB-468 cells assessed as cell growth at 10^-6 M by sulforhodamine B assay; settings: read-out: Activity
PC-3 = assay: Growth inhibition of human PC3 cells assessed as cell growth at 10^-6 M by sulforhodamine B assay; settings: read-out: Activity
SF-539 [9] = assay: Growth inhibition of human SF539 cells assessed as cell growth at 10^-6 M by sulforhodamine B assay; settings: read-out: Activity
A549 = assay: Growth inhibition of human A549/ATCC cells assessed as cell growth at 10^-6 M by sulforhodamine B assay; settings: read-out: Activity
UO-31 [10] = assay: Growth inhibition of human UO31 cells assessed as cell growth at 10^-7 M by sulforhodamine B assay; settings: read-out: Activity
786-0 = assay: Growth inhibition of human 786-0 cells assessed as cell growth at 10^-7 M by sulforhodamine B assay; settings: read-out: Activity
OVCAR-3 [11] = assay: Growth inhibition of human OVCAR3 cells assessed as cell growth at 10^-7 M by sulforhodamine B assay; settings: read-out: Activity
SK-MEL-2 = assay: Growth inhibition of human SK-MEL-2 cells assessed as cell growth at 10^-7 M by sulforhodamine B assay; settings: read-out: Activity
HT-29 = assay: Growth inhibition of human HT-29 cells assessed as cell growth at 10^-7 M by sulforhodamine B assay; settings: read-out: Activity
NCI-H460 [12] = assay: Growth inhibition of human NCI-H460 cells assessed as cell growth at 10^-7 M by sulforhodamine B assay; settings: read-out: Activity
HOP-92 [13] = assay: Growth inhibition of human HOP92 cells assessed as cell growth at 10^-7 M by sulforhodamine B assay; settings: read-out: Activity
MDA-MB-468 [14] = assay: Growth inhibition of human MDA-MB-468 cells assessed as cell growth at 10^-8 M by sulforhodamine B assay; settings: read-out: Activity
BT-549 = assay: Growth inhibition of human BT549 cells assessed as cell growth at 10^-8 M by sulforhodamine B assay; settings: read-out: Activity
CAKI-1 = assay: Growth inhibition of human CAKI-1 cells assessed as cell growth at 10^-8 M by sulforhodamine B assay; settings: read-out: Activity
[15] = read-out: LC50 (the source's name)
[16] = read-out: pLC50 (the source's name) (converted)

Question: How did the GI50 (SW-620; read-out: GI50) turn out when `C/C=C(/C)C(=O)O[C@@H]1CC(C)(C)C[C@H]2C3=CC[C@@H]4[C@@]5(C)CCC(=O)C(C)(C)[C@@H]5CC[C@@]4(C)[C@]3(C)CC[C@@]12C(=O)O` [LANTADENE A] was run?
Answer: 4.48 µM

Question: And the CC50 (SW-620; [15])?
Answer: > 100 µM

Question: And the TGI (SW-620; read-out: TGI)?
Answer: > 100 µM

Question: What about the GI50 (SW-620; read-out: pGI50 (converted)) of the same compound?
Answer: 4.47 µM

Question: What about the CC50 (SW-620; [16]) of the same compound?
Answer: > 100 µM

Question: And the TGI (SW-620; read-out: pTGI (converted))?
Answer: > 100 µM

Question: And the GI50 (NCI-H522 [1]; read-out: GI50)?
Answer: 3.25 µM

Question: And the CC50 (NCI-H522 [1]; [15])?
Answer: > 100 µM

Question: And the TGI (NCI-H522 [1]; read-out: TGI)?
Answer: 44.1 µM

Question: What about the GI50 (NCI-H522 [1]; read-out: pGI50 (converted)) of the same compound?
Answer: 3.24 µM

Question: And the CC50 (NCI-H522 [1]; [16])?
Answer: > 100 µM

Question: What about the TGI (NCI-H522 [1]; read-out: pTGI (converted)) of the same compound?
Answer: 43.7 µM

Question: And the GI50 (HOP-92 [2]; read-out: GI50)?
Answer: 1.19 µM

Question: And the CC50 (HOP-92 [2]; [15])?
Answer: > 100 µM

Question: And the TGI (HOP-92 [2]; read-out: TGI)?
Answer: 5.36 µM

Question: And the GI50 (HOP-92 [2]; read-out: pGI50 (converted))?
Answer: 1.2 µM

Question: And the CC50 (HOP-92 [2]; [16])?
Answer: > 100 µM

Question: What about the TGI (HOP-92 [2]; read-out: pTGI (converted)) of the same compound?
Answer: 5.37 µM

Question: And the growth at 0.01 µM (UACC-257)?
Answer: 96%

Question: What about the growth at 0.01 µM (SK-MEL-28) of the same compound?
Answer: 97%

Question: And the growth at 0.01 µM (SF-539 [3])?
Answer: 102%

Question: And the growth at 0.01 µM (KM12)?
Answer: 103%

Question: What about the growth at 0.01 µM (HCT-116) of the same compound?
Answer: 94%

Question: What about the growth at 0.01 µM (NCI-H522 [4]) of the same compound?
Answer: 109%

Question: What about the GI50 (UO-31 [5]; read-out: GI50) of the same compound?
Answer: 3.44 µM

Question: And the CC50 (UO-31 [5]; [15])?
Answer: > 100 µM

Question: And the TGI (UO-31 [5]; read-out: TGI)?
Answer: > 100 µM

Question: What about the GI50 (UO-31 [5]; read-out: pGI50 (converted)) of the same compound?
Answer: 3.47 µM

Question: And the CC50 (UO-31 [5]; [16])?
Answer: > 100 µM

Question: And the TGI (UO-31 [5]; read-out: pTGI (converted))?
Answer: > 100 µM

Question: What about the GI50 (TK-10; read-out: GI50) of the same compound?
Answer: 5.37 µM

Question: What about the CC50 (TK-10; [15]) of the same compound?
Answer: > 100 µM

Question: What about the TGI (TK-10; read-out: TGI) of the same compound?
Answer: > 100 µM

Question: What about the GI50 (TK-10; read-out: pGI50 (converted)) of the same compound?
Answer: 5.37 µM

Question: And the CC50 (TK-10; [16])?
Answer: > 100 µM

Question: What about the TGI (TK-10; read-out: pTGI (converted)) of the same compound?
Answer: > 100 µM

Question: And the GI50 (A498; read-out: GI50)?
Answer: 2.06 µM

Question: What about the CC50 (A498; [15]) of the same compound?
Answer: > 100 µM

Question: What about the TGI (A498; read-out: TGI) of the same compound?
Answer: 11.6 µM

Question: What about the GI50 (A498; read-out: pGI50 (converted)) of the same compound?
Answer: 2.04 µM

Question: What about the CC50 (A498; [16]) of the same compound?
Answer: > 100 µM

Question: And the TGI (A498; read-out: pTGI (converted))?
Answer: 11.7 µM

Question: What about the GI50 (OVCAR-5; read-out: GI50) of the same compound?
Answer: 18.3 µM

Question: What about the CC50 (OVCAR-5; [15]) of the same compound?
Answer: > 100 µM

Question: What about the TGI (OVCAR-5; read-out: TGI) of the same compound?
Answer: > 100 µM

Question: And the GI50 (OVCAR-5; read-out: pGI50 (converted))?
Answer: 18.2 µM

Question: And the CC50 (OVCAR-5; [16])?
Answer: > 100 µM

Question: What about the TGI (OVCAR-5; read-out: pTGI (converted)) of the same compound?
Answer: > 100 µM

Question: And the GI50 (LOX IMVI; read-out: GI50)?
Answer: 7.8 µM

Question: And the CC50 (LOX IMVI; [15])?
Answer: > 100 µM

Question: What about the TGI (LOX IMVI; read-out: TGI) of the same compound?
Answer: > 100 µM

Question: And the GI50 (LOX IMVI; read-out: pGI50 (converted))?
Answer: 7.76 µM

Question: What about the CC50 (LOX IMVI; [16]) of the same compound?
Answer: > 100 µM

Question: And the TGI (LOX IMVI; read-out: pTGI (converted))?
Answer: > 100 µM

Question: And the GI50 (U-251; read-out: GI50)?
Answer: 3.99 µM

Question: And the CC50 (U-251; [15])?
Answer: > 100 µM

Question: And the TGI (U-251; read-out: TGI)?
Answer: > 100 µM

Question: What about the GI50 (U-251; read-out: pGI50 (converted)) of the same compound?
Answer: 3.98 µM

Question: And the CC50 (U-251; [16])?
Answer: > 100 µM

Question: And the TGI (U-251; read-out: pTGI (converted))?
Answer: > 100 µM

Question: What about the GI50 (SF-295; read-out: GI50) of the same compound?
Answer: 2.77 µM

Question: What about the CC50 (SF-295; [15]) of the same compound?
Answer: > 100 µM

Question: What about the TGI (SF-295; read-out: TGI) of the same compound?
Answer: 15.4 µM

Question: What about the GI50 (SF-295; read-out: pGI50 (converted)) of the same compound?
Answer: 2.75 µM

Question: And the CC50 (SF-295; [16])?
Answer: > 100 µM

Question: What about the TGI (SF-295; read-out: pTGI (converted)) of the same compound?
Answer: 15.5 µM

Question: And the growth at 100 µM (MDA-MB-231)?
Answer: -26%

Question: And the growth at 100 µM (MCF7)?
Answer: 15%

Question: And the growth at 100 µM (DU-145)?
Answer: 29%

Question: What about the growth at 100 µM (ACHN) of the same compound?
Answer: 16%

Question: What about the growth at 100 µM (OVCAR-3 [6]) of the same compound?
Answer: 23%

Question: And the growth at 100 µM (UACC-62)?
Answer: -70%

Question: And the growth at 100 µM (M14)?
Answer: 23%

Question: And the growth at 100 µM (NCI-H460 [7])?
Answer: 8%

Question: What about the growth at 1 µM (MDA-MB-468 [8]) of the same compound?
Answer: 74%

Question: And the growth at 1 µM (PC-3)?
Answer: 68%

Question: What about the growth at 1 µM (SF-539 [9]) of the same compound?
Answer: 106%

Question: And the growth at 1 µM (A549)?
Answer: 80%

Question: What about the growth at 0.1 µM (UO-31 [10]) of the same compound?
Answer: 94%

Question: What about the growth at 0.1 µM (786-0) of the same compound?
Answer: 94%

Question: And the growth at 0.1 µM (OVCAR-3 [11])?
Answer: 109%

Question: What about the growth at 0.1 µM (SK-MEL-2) of the same compound?
Answer: 115%

Question: And the growth at 0.1 µM (HT-29)?
Answer: 101%

Question: And the growth at 0.1 µM (NCI-H460 [12])?
Answer: 98%

Question: And the growth at 0.1 µM (HOP-92 [13])?
Answer: 71%

Question: And the growth at 0.01 µM (MDA-MB-468 [14])?
Answer: 95%

Question: And the growth at 0.01 µM (BT-549)?
Answer: 99%

Question: And the growth at 0.01 µM (CAKI-1)?
Answer: 96%
